Like-named read-outs stand apart in the source and are kept apart here.
Columns and labels:
IRAK1 = target: T1, IRAK1 (Homo sapiens, UniProt P51617); experiment: RBC HotSpot Kinase Assay, IRAK1; type: biochemical; settings: HotSpot functional assay, isolated kinase enzyme, 33P-ATP
T1 construct: purchased RBC (Reaction Biology) HotSpot assay
Procedure, shortened: (§1)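 Isolated kinases, possibly truncated or lacking regulatory receptor regions, were preincubated with compound for 20 min at room temp in 20 mM Hepes pH 7.5, 10 mM MgCl2, 1 mM EGTA, 2 mM DTT, 1% DMSO. Reactions were started with ^33P-ATP and run 2 h at room temperature; activity was read by P81 filter binding.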

NF-κB = experiment: NF-kB assay in THP-1-Blue NF-κB cells (SEAP reporter); type: cell-based
Procedure: THP-1-Blue NF-κB cells (InvivoGen) carrying a stable integrated NF-κB-inducible secreted embryonic alkaline phosphatase (SEAP) reporter construct were plated at a concentration of 1×10^5 cells per well. The cells were stimulated with Pam3CSK4 (1 ng/mL) or hIL1B (Ing/mL). After 10-20 minutes, the cells were then treated with vehicle (DMSO) or serial dilutions of the test compounds (10 doses tested for each test compound, with a 1:10 dilution series starting at 1 μM or 3 μM) with a final volume of 200 μL for 24 hours at 37° C. After 24 hours, the cells were centrifuged and 20 IL supernatant was incubated with 180 μL QUANTI-Blue reagent at 37° C. for 30-60 minutes. The levels of NF-κB-induced was measured in a microplate reader at 620 nm.

MOLM14 D835Y cells = experiment: MOLM14 D835Y cell viability assay (Cell Titer Glo); type: cell-based; settings: Homo sapiens, MOLM-14, 48 h
Procedure: The cell line has activated FLT3 receptors which carry additional resistance mutations in the kinase domain (D835Y).
MOLM14 D835Y cells were grown in RPMI-1640 media supplemented with 20% fetal bovine serum (FBS). […] After cell addition, 23 nL of test compound were transferred into individual wells (22 doses tested for each test compound, with a 1:2 dilution series starting at 10 μM) via a 1536 pin-tool. Bortezomib (final concentration 2.3 μM) was used as a positive control for cell cytotoxicity.

IRAK4 = target: T2, IRAK4 (Homo sapiens, UniProt Q9NWZ3); experiment: RBC HotSpot Kinase Assay, IRAK4; type: biochemical; design: purchased RBC (Reaction Biology) HotSpot assay; settings: HotSpot functional assay, isolated kinase enzyme, 33P-ATP
T2 sequence (Q9NWZ3 1-460): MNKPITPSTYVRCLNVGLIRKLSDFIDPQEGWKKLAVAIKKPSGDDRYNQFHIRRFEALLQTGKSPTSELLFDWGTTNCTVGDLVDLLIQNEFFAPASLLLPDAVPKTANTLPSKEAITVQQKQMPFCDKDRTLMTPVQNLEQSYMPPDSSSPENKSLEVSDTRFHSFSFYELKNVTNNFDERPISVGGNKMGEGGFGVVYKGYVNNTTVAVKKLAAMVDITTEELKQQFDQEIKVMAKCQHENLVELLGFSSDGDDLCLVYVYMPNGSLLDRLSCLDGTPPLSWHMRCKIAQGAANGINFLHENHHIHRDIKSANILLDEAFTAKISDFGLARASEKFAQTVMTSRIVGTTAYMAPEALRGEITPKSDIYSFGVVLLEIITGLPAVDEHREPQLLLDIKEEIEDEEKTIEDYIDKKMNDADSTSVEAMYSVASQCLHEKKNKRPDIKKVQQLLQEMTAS
Procedure, shortened: as §1

FLT3 = target: T3, FLT3 (Homo sapiens, UniProt P36888); experiment: RBC HotSpot Kinase Assay, FLT3; type: biochemical; design: purchased RBC (Reaction Biology) HotSpot assay; settings: HotSpot functional assay, isolated kinase enzyme, 33P-ATP
T3 sequence (P36888 27-993): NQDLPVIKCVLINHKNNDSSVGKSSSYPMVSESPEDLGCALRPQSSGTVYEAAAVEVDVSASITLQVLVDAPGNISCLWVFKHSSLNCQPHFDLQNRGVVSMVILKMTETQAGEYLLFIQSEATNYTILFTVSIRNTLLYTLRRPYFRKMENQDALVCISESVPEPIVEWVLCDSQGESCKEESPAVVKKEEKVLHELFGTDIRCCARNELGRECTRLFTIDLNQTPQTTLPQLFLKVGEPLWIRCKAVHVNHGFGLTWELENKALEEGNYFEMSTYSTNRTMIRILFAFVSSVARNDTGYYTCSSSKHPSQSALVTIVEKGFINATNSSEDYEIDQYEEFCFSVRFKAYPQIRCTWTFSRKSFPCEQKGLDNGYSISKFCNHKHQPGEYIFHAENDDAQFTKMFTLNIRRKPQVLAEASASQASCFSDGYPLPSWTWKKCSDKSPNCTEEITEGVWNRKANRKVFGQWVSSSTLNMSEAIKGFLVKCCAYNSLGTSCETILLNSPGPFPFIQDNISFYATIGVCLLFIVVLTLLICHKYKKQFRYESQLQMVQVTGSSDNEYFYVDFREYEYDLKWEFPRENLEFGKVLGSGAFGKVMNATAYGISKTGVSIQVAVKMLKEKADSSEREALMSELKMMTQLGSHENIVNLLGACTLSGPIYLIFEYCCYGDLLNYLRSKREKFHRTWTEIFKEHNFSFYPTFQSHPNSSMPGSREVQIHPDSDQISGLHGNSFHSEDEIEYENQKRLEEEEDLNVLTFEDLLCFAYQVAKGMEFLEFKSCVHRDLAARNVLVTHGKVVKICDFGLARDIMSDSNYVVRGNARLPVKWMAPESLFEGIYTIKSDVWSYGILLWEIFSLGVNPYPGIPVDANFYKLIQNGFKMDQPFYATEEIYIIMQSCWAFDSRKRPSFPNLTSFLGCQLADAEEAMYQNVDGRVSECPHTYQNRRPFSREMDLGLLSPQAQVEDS
Procedure, shortened: as §1

[1] = test system: MOLM14-FLT3-ITD (D835Y) AML cells; experiment: Caspase-Glo 3/7 apoptosis assay, time course; type: cell-based; settings: 4.12 nM added to dose level 7 of Compound 106 with dose level 7 of venetoclax
[2] = THP-1-Blue NF-κB cells stimulated with Pam3CSK4, 24 hours, read-out: NF-κB Pam3SCK4 IC50
[3] = THP-1-Blue NF-κB cells stimulated with hIL1B, 24 hours, read-out: NF-κB IL1B IC50

T1 sequence (P51617 whole entry): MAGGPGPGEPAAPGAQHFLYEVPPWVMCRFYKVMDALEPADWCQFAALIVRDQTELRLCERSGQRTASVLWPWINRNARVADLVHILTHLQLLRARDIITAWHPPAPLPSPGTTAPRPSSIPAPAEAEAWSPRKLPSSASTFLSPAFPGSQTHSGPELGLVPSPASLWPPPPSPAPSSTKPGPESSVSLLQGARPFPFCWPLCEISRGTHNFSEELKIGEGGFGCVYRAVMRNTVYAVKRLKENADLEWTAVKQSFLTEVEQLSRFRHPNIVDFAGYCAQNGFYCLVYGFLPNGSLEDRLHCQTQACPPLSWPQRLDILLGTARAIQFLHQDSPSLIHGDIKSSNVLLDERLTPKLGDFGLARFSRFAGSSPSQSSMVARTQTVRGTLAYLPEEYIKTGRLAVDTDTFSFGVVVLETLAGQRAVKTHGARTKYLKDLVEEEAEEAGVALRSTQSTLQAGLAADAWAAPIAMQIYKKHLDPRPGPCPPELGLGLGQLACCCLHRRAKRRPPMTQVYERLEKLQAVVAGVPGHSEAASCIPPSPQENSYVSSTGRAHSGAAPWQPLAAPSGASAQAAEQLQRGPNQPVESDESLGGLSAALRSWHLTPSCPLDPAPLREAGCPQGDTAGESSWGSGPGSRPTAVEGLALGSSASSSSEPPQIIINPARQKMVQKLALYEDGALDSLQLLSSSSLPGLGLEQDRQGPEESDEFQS

COc1cc2ncc(-c3nc(N[C@H]4CNC[C@@H]4F)ccc3F)n2nc1C1CC1 [Compound 45a, 6-(6-cyclopropyl-7-methoxyimidazo[1,2-b]pyridazin-3-yl)-5-fluoro-N-((3S,4S)-4-fluoropyrrolidin-3-yl)pyridin-2-amine]
IC50 (IRAK1): 37 nM
IC50 (NF-κB; [2]): 44 nM
IC50 (NF-κB; [3]): 45 nM
IC50 (MOLM14 D835Y cells): 20 nM
IC50 (IRAK4): < 0.5 nM
IC50 (FLT3): < 0.5 nM

Nc1ncn([C@@H]2O[C@H](CO)[C@@H](O)[C@H]2O)c(=O)n1 [Compound 5-azacitdine, 5-azacitdine, reference compound]
benefit of a third agent added to Compound 106 with venetoclax (apoptosis) [1]: little to no additional benefit

COc1cc2ncc(-c3ccc(F)c(N[C@H]4CNC[C@@H]4F)n3)n2nc1C1CC1 [Compound 46a, 6-(6-cyclopropyl-7-methoxyimidazo[1,2-b]pyridazin-3-yl)-3-fluoro-N-((3S,4S)-4-fluoropyrrolidin-3-yl)pyridin-2-amine]
IC50 (IRAK1): 12 nM
IC50 (NF-κB; [2]): 59 nM
IC50 (NF-κB; [3]): 72 nM
IC50 (MOLM14 D835Y cells): 115 nM
IC50 (IRAK4): < 0.5 nM
IC50 (FLT3): < 0.5 nM

COc1cc2ncc(-c3nc(N[C@@H]4CCCNC4)c(F)cc3F)n2nc1C12CC(C1)C2 [Compound 65a, (R)-6-(6-(bicyclo[1.1.1]pentan-1-yl)-7-methoxyimidazo[1,2-b]pyridazin-3-yl)-3,5-difluoro-N-(piperidin-3-yl)pyridin-2-amine]
IC50 (IRAK1): 18 nM
IC50 (NF-κB; [2]): 312 nM
IC50 (NF-κB; [3]): 410 nM
IC50 (IRAK4): 9 nM
IC50 (FLT3): < 0.5 nM

COc1cc2ncc(-c3ccc(C#N)c(N[C@@H]4CCCNC4)n3)n2nc1C1CC1 [Compound 28a, (R)-6-(6-cyclopropyl-7-methoxyimidazo[1,2-b]pyridazin-3-yl)-2-(piperidin-3-ylamino)nicotinonitrile]
IC50 (IRAK1): 836 nM
IC50 (NF-κB; [2]): 203 nM
IC50 (NF-κB; [3]): 481 nM
IC50 (IRAK4): 13 nM
IC50 (FLT3): < 0.5 nM

COc1cc2ncc(-c3nc(N[C@H]4CNCC[C@@H]4F)ccc3F)n2nc1C1CC1 [Compound 47a, 6-(6-cyclopropyl-7-methoxyimidazo[1,2-b]pyridazin-3-yl)-5-fluoro-N-((3S,4S)-4-fluoropiperidin-3-yl)pyridin-2-amine]
IC50 (IRAK1): 6 nM
IC50 (NF-κB; [2]): 45 nM
IC50 (NF-κB; [3]): 95 nM
IC50 (MOLM14 D835Y cells): 4 nM
IC50 (IRAK4): < 0.5 nM
IC50 (FLT3): < 0.5 nM

From patent US20250368648A1, “MULTI-CYCLIC IRAK AND FLT3 INHIBITING COMPOUNDS AND USES THEREOF” (CHILDREN'S HOSPITAL MEDICAL CENTER, priority 2022, published 2025)
